{
  "source": "patent US9271961B2",
  "about": "“Bifunctional AKR1C3 inhibitors/androgen receptor modulators and methods of use thereof” (THE TRUSTEES OF THE UNIVERSITY OF PENNSYLVANIA, priority 2011, dated 2016)",
  "key": {"[1]": {"system": "AKR1C enzymes", "experiment": "Inhibition of AKR1C enzymes (FIG. 20)", "assay_type": "biochemical"}, "[2]": {"target": "T1, AKR1C3 (Homo sapiens (Human), UniProt P42330)", "experiment": "Inhibition of NADP+ dependent oxidation of S-tetralol by recombinant AKR1C3", "assay_type": "biochemical", "settings": "for pIC50: S-tetralol oxidation, substrate at KM", "protocol": "The inhibitory potency of the compounds disclosed herein was determined using purified homogenous recombinant enzymes. Full concentration response studies were conducted and IC50 values calculated using Grafit 5.0 software. The compounds were evaluated for their effects on enzyme catalyzed oxidation of S-tetralol using a 96-well plate format.\nThe primary screen was also modified to report the following ratio: AKR1C2 IC50 value:AKR1C3 IC50 value. […] When bifunctional AKR1C3 and SARMs are sought the androgen receptor reporter gene assay is moved up in sequence.\nBased on this assumption, the screening strategy adopted was to determine the inhibitory potency of each compound against AKR1C2 and AKR1C3 and use the ratio of IC50 value for AKR1C2:IC50 value for AKR1C3 as an index of compound selectivity for AKR1C3. The inhibitory potency of compounds on AKR1C2 and AKR1C3 was determined by measuring the inhibition of the NADP^+ dependent oxidation of S-tetralol."}, "[3]": {"target": "T1, AKR1C3", "experiment": "Conversion of Δ4-AD to testosterone in LNCaP cells stably transfected with AKR1C3", "assay_type": "cell-based", "settings": "for amount of testosterone formed from Δ4-AD: LNCaP-AKR1C3 cells; for conversion of Δ4-AD to testosterone: LNCaP-AKR1C3 transfected cells, 10 μM", "protocol": "LNCaP cells were stably transfected with AKR1 C3 using the retroviral construct pLNCX-AKR1C3, and its expression was documented using both RT-PCR and immunoblot analysis using an isoform specific monoclonal AKR1C3 antibody (Byrns et al., 2012, J. Steroid Biochem. Mol. Biol. 130:7-15). Metabolism studies of 0.1 μM and 5.0 μM [^14C]-Δ^4-AD were conducted in LNCaP and LNCaP-AKR1C3 cells with the anticipation that the transfected cells would form more testosterone. The bulk of the metabolites formed in LNCaP cells were found in the aqueous phase. When this phase was treated with β-glucuronidase (200 units/mL at pH 6.6) and re-extracted, androsterone was the predominate metabolite released into the organic soluble fraction providing evidence for the formation of androsterone-3α-glucuronide. When LNCaP-AKR1C3 transfected cells were used, the bulk of the metabolites were again found in the aqueous phase. However, β-glucuronidase treatment of the aqueous phase yielded both androsterone and testosterone, providing evidence for testosterone formation by these cells.\nTertiary screens of the compounds of interest include: (a) inhibition of the conversion of Δ^4-AD to testosterone in LNCaP (AR dependent prostate cancer) cells stably transfected with AKR1C3; (b) inhibition of Δ^4-AD mediated cell proliferation in LNCaP cells stably transfected with AKR1C3; and (c) inhibition of growth of castrate resistant prostate cancer cells in culture."}, "[4]": {"target": "T1, AKR1C3", "experiment": "Inhibition of AKR1C3 catalyzed reduction of Δ4-androstene-3,17-dione to testosterone", "assay_type": "biochemical", "description": "Compounds may be evaluated as selective reversible inhibitors of AKR1C3 by screening them against homogeneous recombinant AKR1C1-AKR1C4 expressed in E. coli. […] IC50 values are generated using steroid concentrations at KM.\nThe primary screen was also modified to report the following ratio: AKR1C2 IC50 value:AKR1C3 IC50 value. A high ratio reflects a high selectivity for AKR1C3 and data are used to generate heat-maps, FIG. 14. This method is preferred to measuring percent inhibition using a single concentration of 1.0 μM inhibitor, since this single point method is prone to identifying false positives. […] The leads may then be moved into secondary in vitro screens (complete screen against all human AKR isoforms; COX-1 and COX-2; and other relevant human 17β-HSD isoforms); tertiary screens using cell-based assays (inhibition of AKR1C3 mediated testosterone production and AKR1C3 mediated cell proliferation in prostate cancer cell lines; and modulation of the androgen receptor in reporter gene assays); and quaternary screens in xenograft models of CRPC. When bifunctional AKR1C3 and SARMs are sought the androgen receptor reporter gene assay is moved up in sequence."}, "[5]": {"target": "aldose reductase (AKR1B1) (Homo sapiens (Human), UniProt P15121)", "experiment": "Secondary screen against aldose reductase", "assay_type": "biochemical"}, "[6]": {"target": "retinal reductase (AKR1B10) (Homo sapiens (Human), UniProt O60218)", "experiment": "Secondary screen against retinal reductase", "assay_type": "biochemical"}, "[7]": {"target": "COX-1 (Homo sapiens (Human), UniProt P23219)", "experiment": "Screen against COX-1", "assay_type": "biochemical"}, "[8]": {"target": "COX-2 (Homo sapiens (Human), UniProt P35354)", "experiment": "Screen against COX-2", "assay_type": "biochemical"}, "[9]": {"system": "prostatic specific antigen (PSA) gene expression", "experiment": "AR regulated PSA gene expression in LNCaP cells", "assay_type": "cell-based", "settings": "10-30 μM, presence and absence of 5α-DHT (0.1-1.0 nM)"}, "[10]": {"target": "T2, AR (Homo sapiens (Human), UniProt P10275)", "experiment": "AR stability / degradation in Hela cells", "assay_type": "cell-based", "settings": "10-40 μM, presence and absence of 0.1 nM 5α-DHT"}, "[11]": {"system": "mutated AR and PSA expression", "experiment": "Mutated AR levels and PSA expression in LNCaP-AKR1C3 cells", "assay_type": "cell-based", "settings": "presence of either 1.0 nM 5α-DHT or 100 nM Δ4-AD"}, "[12]": {"target": "T2, AR", "experiment": "AR nuclear translocation from the cytosol in HeLa 13 cells", "settings": "presence of DHT", "quoted_text": "AR LE and AR SE=long and short exposure to detect cytoplasmic AR. β-tubulin was used as a loading control."}},
  "note": "pIC50, pKi: −log10 of the molar value.",
  "data": [
    {"molecule": "4-chloro-N-phenylanthranilate [reference compound]", "values": [
      {"measurement": "inhibition of AKR1C enzymes", "setting": "[1]", "value": "inhibits"}
    ]},
    {"molecule": "O=C(O)c1ccccc1Nc1cccc(C(F)(F)F)c1", "note": "[Compound 1, Flufenamic Acid, reference compound]", "values": [
      {"measurement": "pIC50", "setting": "[2]", "value": 7.30}
    ]},
    {"molecule": "O=C(O)c1cccc(Nc2ccccc2)c1", "note": "[Compound 3, 3-Phenylamino benzoic acid]", "values": [
      {"measurement": "pIC50", "setting": "[2]", "value": 6.03}
    ]},
    {"molecule": "O=C(O)c1cccc(Nc2ccc([N+](=O)[O-])cc2)c1", "note": "[Compound 5, 3-[N-(4-nitrophenyl)amino]benzoic acid]", "values": [
      {"measurement": "AKR1C3 inhibitory potency (in words)", "setting": "[2]", "value": "low nanomolar range"},
      {"measurement": "pIC50", "setting": "[2]", "value": 7.44}
    ]},
    {"molecule": "O=C(O)c1cccc(Nc2ccc(C(F)(F)F)cc2)c1", "note": "[Compound 7, 3-[N-(4-Trifluoromethylphenyl)amino]benzoic acid]", "values": [
      {"measurement": "amount of testosterone formed from Δ4-AD", "setting": "[3]", "value": "significant decline"}
    ]},
    {"molecule": "O=C(O)c1cccc(Nc2ccc(Cl)cc2)c1", "note": "[Compound 8, 3-[N-(4-Chlorophenyl)amino]benzoic acid]", "values": [
      {"measurement": "conversion of Δ4-AD to testosterone", "setting": "[3]", "value": "completely blocked"}
    ]},
    {"molecule": "O=C(O)c1cccc(Nc2ccc([N+](=O)[O-])c3ccccc23)c1", "note": "[Compound 13, 3-((4-nitronaphthalen-1-yl)amino)benzoic acid]", "values": [
      {"measurement": "slope factor of the inhibition dose-response curve", "setting": "[2]; AKR1C3", "value": "approximately two"},
      {"measurement": "pKi", "setting": "[2]; S-tetralol as substrate", "value": 7.24},
      {"measurement": "pattern of inhibition of AKR1C3", "setting": "[2]; S-tetralol as substrate, E.NADP+.S-tetralol complex", "value": "competitive inhibition"},
      {"measurement": "pIC50", "setting": "[2]", "value": 7.12},
      {"measurement": "pattern of inhibition of AKR1C3", "setting": "[4]; Δ4-AD as substrate, E.NADPH.Δ4-AD complex", "value": "competitive inhibition"},
      {"measurement": "pKi", "setting": "[4]; Δ4-androstene-3,17-dione as substrate", "value": 5.61},
      {"measurement": "amount of testosterone formed from Δ4-AD", "setting": "[3]", "value": "significant decline"},
      {"measurement": "conversion of Δ4-AD to testosterone", "setting": "[3]", "value": "completely blocked"},
      {"measurement": "inhibition of aldose reductase (AKR1B1)", "setting": "[5]", "value": "failed to inhibit"},
      {"measurement": "inhibition of retinal reductase (AKR1B10)", "setting": "[6]", "value": "failed to inhibit"},
      {"measurement": "inhibition of COX-1", "setting": "[7]", "value": "failed to inhibit"},
      {"measurement": "inhibition of COX-2", "setting": "[8]", "value": "failed to inhibit"},
      {"measurement": "expression of PSA", "setting": "[9]", "value": "block the expression of PSA"},
      {"measurement": "degradation of the AR", "setting": "[10]", "value": "dose-dependent degradation"},
      {"measurement": "expression of the mutated AR and PSA", "setting": "[11]", "value": "decrease"},
      {"measurement": "cytoplasmic AR (prevention of nuclear localization of the AR)", "setting": "[12]", "value": "dose dependent increase in cytoplasmic AR"}
    ]}
  ]
}
